# Values of other authors, collected in patent publication US9260760B2, “Method for determining complete response to anticancer therapy” (Board of Regents, The University of Texas System, priority 2012, dated 2016).
# Where two headings read alike, the source gives them in different places.
# Experiments:
# [1] = cited from earlier work
# [2] = tested on: metastatic colorectal cancer; conditions: cited from earlier work
smiles,measurement,setting,value
"CCCCCOC(=O)Nc1nc(=O)n([C@@H]2O[C@H](C)[C@@H](O)[C@H]2O)cc1F [Capecitabine, capecitabine]",grade 3 HFS,[1]; capecitabine at 1250 mg/m2/d,≤ 17%
same,patients with HFS onset within six weeks,[1]; capecitabine at 1250 mg/m2/d,93%
same,patients with most severe HFS episode within six weeks,[1]; capecitabine at 1250 mg/m2/d,67.9%
same,HFS,"[1]; capecitabine starting at 750-1000 mg/m2/d bid with irinotecan (Patt et al., 2004)",35%
same,incidence of grade ⅔ HFS,"[1]; earlier study, capecitabine 1000 mg/m2/d bid (Lin et al., 2002)",34.2%
same,Complete response (%),[2]; first-line therapy,3%
same,Median OS (months),[2]; first-line therapy,12.4-13.2 months
same,Median PFS (months),[2]; first-line therapy,4.2 months
same,Response rate (%),[2]; first-line therapy,19-25%
same,Stable disease (%),[2]; first-line therapy,50%
same,time at which half of the patients experienced tumor progression,[2]; monotherapy capecitabine,2-4 months
same,Complete response (%),[2]; second-line therapy,0%
same,Median OS (months),[2]; second-line therapy,12.2 months
same,Median PFS (months),[2]; second-line therapy,2.1 months
same,Response rate (%),[2]; second-line therapy,0%
same,Stable disease (%),[2]; second-line therapy,50%
